Values quoted from earlier work in article PMC4894406, “Results of an abbreviated phase-II study with the Akt Inhibitor MK-2206 in Patients with Advanced Biliary Cancer” (Scientific Reports, 2015).

Test system: cholangiocarcinoma cell lines
Conditions: pre-clinical data; cited from earlier work

SMILES	effect on CXCL12-induced cholangiocarcinoma cell invasion
N#CC(=C(/N)Sc1ccccc1N)/C(C#N)=C(/N)Sc1ccccc1N [UO126]	attenuated
O=c1cc(N2CCOCC2)oc2c(-c3ccccc3)cccc12 [LY294002]	attenuated
